Laboratory results: patent US8859535B2, “Hydroxy substituted isoquinolinone derivatives” (Novartis AG, priority 2011, dated 2014)

Experiments:
[1] = target: T1, human MDM2 protein (amino acids 2-188) (Homo sapiens, UniProt Q00987); assay: p53-MDM2 TR-FRET assay (p53-MDM2 Assay 1); type: binding; conditions: 1.25 nM MDM2-biotinylated, 10 nM Cy5-p53 peptide; read-out: IC50 (μM) of p53-Hdm2 inhibition (TR-FRET) Assay 1
T1 construct: human MDM2 protein (amino acids 2-188); made in house
Method: (§1) Time Resolved Fluorescence Energy Transfer (TR-FRET) Assay
(§2) The inhibition of p53-MDM2 and p53-MDM4 interactions is measured by time resolved fluorescence energy transfer (TR-FRET). Fluorescence energy transfer (or Foerster resonance energy transfer) describes an energy transfer between donor and acceptor fluorescent molecules. For this assay, human MDM2 protein (amino acids 2-188) and human MDM4 protein (amino acids 2-185), tagged with a C-terminal biotin moiety, are used in combination with a Europium labeled streptavidin (Perkin Elmer, Inc., Waltham, Mass., USA) serving as the donor fluorophore. The p53 derived, Cy5 labeled peptide Cy5-TFSDLWKLL (p53 aa18-26) is the energy acceptor. Upon excitation of the donor molecule at 340 nm, binding interaction between MDM2 or MDM4 and the p53 peptide induces energy transfer and enhanced response at the acceptor emission wavelength at 665 nm. Disruption of the formation of the p53-MDM2 or p53-MDM4 complex due to an inhibitor molecule binding to the p53 binding site of MDM2 or MDM4 results in increased donor emission at 620 nm. The ratiometric FRET assay readout is calculated from the raw data of the two distinct fluorescence signals measured in time resolved mode (fluorescence 665 nm/fluorescence 620 nm×1000).
(§3) After addition of 1.25 nM MDM2-biotinylated or 2.5 nM MDM4-biotinylated (internal preparations), and 0.625 nM Europium labeled streptavidin (Perkin Elmer), the solution is pre-incubated for 15 minutes at room temperature, then 10 nM Cy5-p53 peptide (internal preparation) is added before an incubation at room temperature for 15 minutes prior to reading the plate. For measurement of samples, a Victor II microplate reader (Perkin Elmer) is used with the following settings: Excitation 340 nm, Emission Donor 620 nm and Emission Acceptor 665 nm. IC50 values are calculated by curve fitting using XLfit. If not specified, reagents are purchased from Sigma-Aldrich Chemie GmBH, Buchs, Switzerland.
(§4) This assay was used to evaluate compounds displaying inhibition of p53-MDM2 interaction and p53-MDM4 interaction at IC50s of 0.005 to 50 μM (p53-MDM2 Assay 1 and p53-MDM4 Assay 1, respectively). For selected compounds displaying IC50s between […] on MDM2, a slightly modified assay is used with the following adaptations: 0.1 nM MDM2, 0.1 nM Europium labeled streptavidin and Tecan genios Pro is used as a microplate reader for the fluorescence measurements (p53-MDM2 Assay 2).

[2] = target: T2, human MDM4 protein (amino acids 2-185) (Homo sapiens, UniProt O15151); assay: p53-MDM4 TR-FRET assay (p53-MDM4 Assay 1); type: binding; conditions: 2.5 nM MDM4-biotinylated, 10 nM Cy5-p53 peptide; read-out: IC50 (μM) of p53-Hdm4 inhibition (TR-FRET) Assay 1
T2 construct: human MDM4 protein (amino acids 2-185); made in house
T2 sequence (O15151 2-185): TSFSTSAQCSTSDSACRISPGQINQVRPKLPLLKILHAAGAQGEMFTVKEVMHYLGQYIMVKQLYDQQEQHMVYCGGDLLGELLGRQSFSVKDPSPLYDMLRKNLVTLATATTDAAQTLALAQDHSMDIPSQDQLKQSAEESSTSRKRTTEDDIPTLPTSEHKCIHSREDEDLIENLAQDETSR
Method: as §1, §2, §3, §4

T1 sequence (Q00987 2-188): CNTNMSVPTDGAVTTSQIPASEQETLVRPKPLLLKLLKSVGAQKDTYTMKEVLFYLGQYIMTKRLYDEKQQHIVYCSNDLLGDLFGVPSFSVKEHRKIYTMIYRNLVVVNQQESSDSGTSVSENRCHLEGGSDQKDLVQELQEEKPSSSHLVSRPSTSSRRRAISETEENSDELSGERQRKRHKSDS

| Compound | IC50 [1] [µM] | IC50 [2] [µM] |
| --- | --- | --- |
| COc1cc2c(cc1OC(C)C)[C@H](c1ccc(Cl)cc1)N(c1ccc([C@](C)(O)C3CCOCC3)c(F)c1)C(=O)C2 (single isomer, unassigned) [Example 38] | 0.383 | 84 |
| COc1cc2c(cc1OC(C)C)[C@H](c1ccc(Cl)cc1)N(c1ccc([C@@](C)(O)C3CCOCC3)c(F)c1)C(=O)C2 (single isomer, unassigned) [Example 39] | 0.0023 | 1.52 |
| COc1cc2c(cc1OC(C)C)[C@H](c1ccc(Cl)cc1)N(c1ccc([C@@](C)(O)C3CCC(F)(F)CC3)cc1)C(=O)C2 (single isomer, unassigned) [Example 47] | 0.005 | 7.17 |
| COc1cc2c(cc1OC(C)C)[C@H](c1ccc(Cl)cc1)N(c1ccc([C@@](C)(O)C3CCN(C(C)=O)CC3)cc1)C(=O)C2 (single isomer, unassigned) [Example 53] | 0.0017 | 1.62 |
| COc1cc2c(cc1OC(C)C)[C@H](c1ccc(Cl)cc1)N(c1ccc([C@](C)(O)C3CCN(C(C)=O)CC3)cc1)C(=O)C2 (single isomer, unassigned) [Example 54] | 0.105 | 36.7 |
| COc1cc2c(cc1OC(C)C)[C@H](c1ccc(Cl)cc1)N(c1ccc([C@](C)(O)C3CCN(C)CC3)cc1)C(=O)C2 (single isomer, unassigned) [Example 95] | 0.129 | 49.9 |
| COc1cc2c(cc1OC(C)C)[C@H](c1ccc(Cl)cc1)N(c1ccc([C@@](C)(O)C34CCC(CC3)O4)cc1)C(=O)C2 (single isomer, unassigned) [Example 136] | 0.0025 | 2.96 |
| COc1cc2c(cc1OC(C)C)[C@H](c1ccc(Cl)cc1)N(c1ccc([C@](C)(O)C34CCC(CC3)O4)cc1)C(=O)C2 (single isomer, unassigned) [Example 137] | 0.145 | 25.7 |
| COc1cc2c(cc1OC(C)C)[C@H](c1ccc(Cl)cc1)N(c1ccc([C@@](C)(O)C34CC5CC(CC(C5)C3)C4)cc1)C(=O)C2 (single isomer, unassigned) [Example 142] | 0.0054 | 13.2 |
| COc1cccc(C(C)(O)c2ccc(N3C(=O)Cc4cc(OC)c(OC(C)C)cc4[C@@H]3c3ccc(Cl)cc3)cc2)c1 (stereo partly drawn) [Example 1, (S)-1-(4-Chloro-phenyl)-2-{4-[1-hydroxy-1-(3-methoxy-phenyl)-ethyl]-phenyl}-7-isopropoxy-6-methoxy-1,4-dihydro-2H-isoquinolin-3-one] | 0.0432 | 70.8 |
| COc1cccc(C(O)c2ccc(N3C(=O)Cc4cc(OC)c(OC(C)C)cc4[C@@H]3c3ccc(Cl)cc3)cc2)c1 (stereo partly drawn) [Example 2, (S)-1-(4-Chloro-phenyl)-2-{4-[hydroxy-(3-methoxy-phenyl)-methyl]-phenyl}-7-isopropoxy-6-methoxy-1,4-dihydro-2H-isoquinolin-3-one] | 0.0868 | 87 |
| CCC(C)(O)c1ccc(N2C(=O)Cc3cc(OC)c(OC(C)C)cc3[C@@H]2c2ccc(Cl)cc2)cc1 (stereo partly drawn) [Example 3, (S)-1-(4-Chloro-phenyl)-2-[4-(1-hydroxy-1-methyl-propyl)-phenyl]-7-isopropoxy-6-methoxy-1,4-dihydro-2H-isoquinolin-3-one] | 0.0267 | 18.9 |
| COc1ccc(C(O)c2ccc(N3C(=O)Cc4cc(OC)c(OC(C)C)cc4[C@@H]3c3ccc(Cl)cc3)cc2)cc1 (stereo partly drawn) [Example 4, (S)-1-(4-Chloro-phenyl)-2-{4-[hydroxy-(4-methoxy-phenyl)-methyl]-phenyl}-7-isopropoxy-6-methoxy-1,4-dihydro-2H-isoquinolin-3-one] | 0.0107 | 17.3 |
| COc1ccc(C(C)(O)c2ccc(N3C(=O)Cc4cc(OC)c(OC(C)C)cc4[C@@H]3c3ccc(Cl)cc3)cc2)cc1 (stereo partly drawn) [Example 5, (S)-1-(4-Chloro-phenyl)-2-{4-[1-hydroxy-1-(4-methoxy-phenyl)-ethyl]-phenyl}-7-isopropoxy-6-methoxy-1,4-dihydro-2H-isoquinolin-3-one] | 0.0082 | 10.5 |
| COc1cc2c(cc1OC(C)C)[C@H](c1ccc(Cl)cc1)N(c1ccc(C(C)(O)c3ccc(F)cc3)cc1)C(=O)C2 (stereo partly drawn) [Example 6, (S)-1-(4-Chloro-phenyl)-2-{4-[1-(4-fluoro-phenyl)-1-hydroxy-ethyl]-phenyl}-7-isopropoxy-6-methoxy-1,4-dihydro-2H-isoquinolin-3-one] | 0.0343 | 61.8 |
| COc1ccc(C(O)(c2ccc(N3C(=O)Cc4cc(OC)c(OC(C)C)cc4[C@@H]3c3ccc(Cl)cc3)cc2)C(F)(F)F)cc1 (stereo partly drawn) [Example 7, (S)-1-(4-Chloro-phenyl)-7-isopropoxy-6-methoxy-2-{4-[2,2,2-trifluoro-1-hydroxy-1-(4-methoxy-phenyl)-ethyl]-phenyl}-1,4-dihydro-2H-isoquinolin-3-one] | 0.132 | 49.3 |
| COc1cc2c(cc1OC(C)C)[C@H](c1ccc(Cl)cc1)N(c1ccc(C(O)C3CCCCC3)cc1)C(=O)C2 (stereo partly drawn) [Example 8, (S)-1-(4-Chloro-phenyl)-2-[4-(cyclohexyl-hydroxy-methyl)-phenyl]-7-isopropoxy-6-methoxy-1,4-dihydro-2H-isoquinolin-3-one] | 0.0316 | 61.3 |
| COc1cc2c(cc1OC(C)C)[C@H](c1ccc(Cl)cc1)N(c1ccc(C(C)(C)O)cc1)C(=O)C2 [Example 11, (S)-1-(4-Chloro-phenyl)-2-[4-(1-hydroxy-1-methyl-ethyl)-phenyl]-7-isopropoxy-6-methoxy-1,4-dihydro-2H-isoquinolin-3-one] | 0.0555 | 51.6 |
| COc1cc2c(cc1OC(C)C)[C@H](c1ccc(Cl)cc1)N(c1ccc(C(C)(O)c3ccncc3)cn1)C(=O)C2 (stereo partly drawn) [Example 12, (S)-1-(4-Chloro-phenyl)-2-[5-(1-hydroxy-1-pyridin-4-yl-ethyl)-pyridin-2-yl]-7-isopropoxy-6-methoxy-1,4-dihydro-2H-isoquinolin-3-one] | 0.0195 | 23.9 |
| COc1cc2c(cc1OC(C)C)[C@H](c1ccc(Cl)cc1)N(c1ccc(C(C)(O)c3cn(C)cn3)cc1)C(=O)C2 (stereo partly drawn) [Example 13, (S)-1-(4-Chloro-phenyl)-2-{4-[1-hydroxy-1-(1-methyl-1H-imidazol-4-yl)-ethyl]-phenyl}-7-isopropoxy-6-methoxy-1,4-dihydro-2H-isoquinolin-3-one] | 0.0608 | 82.7 |
| COc1cc2c(cc1OC(C)C)[C@H](c1ccc(Cl)cc1)N(c1ccc(C(C)(O)c3ccn(C)n3)cc1)C(=O)C2 (stereo partly drawn) [Example 14, (S)-1-(4-Chloro-phenyl)-2-{4-[1-hydroxy-1-(1-methyl-1H-pyrazol-3-yl)-ethyl]-phenyl}-7-isopropoxy-6-methoxy-1,4-dihydro-2H-isoquinolin-3-one] | 0.0494 | 53.7 |
| COc1cc2c(cc1OC(C)C)[C@H](c1ccc(Cl)cc1)N(c1ccc(C(C)(O)c3cccnc3)cn1)C(=O)C2 (stereo partly drawn) [Example 15, (S)-1-(4-Chloro-phenyl)-2-[5-(1-hydroxy-1-pyridin-3-yl-ethyl)-pyridin-2-yl]-7-isopropoxy-6-methoxy-1,4-dihydro-2H-isoquinolin-3-one] | 0.0404 | 61.1 |
| COc1cc2c(cc1OC(C)C)[C@H](c1ccc(Cl)cc1)N(c1ccc(C(C)(O)c3cccnc3)cc1)C(=O)C2 (stereo partly drawn) [Example 16, (S)-1-(4-Chloro-phenyl)-2-[4-(1-hydroxy-1-pyridin-3-yl-ethyl)-phenyl]-7-isopropoxy-6-methoxy-1,4-dihydro-2H-isoquinolin-3-one] | 0.0058 | 8.42 |
| COc1cc2c(cc1OC(C)C)[C@H](c1ccc(Cl)cc1)N(c1ccc(C(C)(O)c3ccncc3)cc1)C(=O)C2 (stereo partly drawn) [Example 17, (S)-1-(4-Chloro-phenyl)-2-[4-(1-hydroxy-1-pyridin-4-yl-ethyl)-phenyl]-7-isopropoxy-6-methoxy-1,4-dihydro-2H-isoquinolin-3-one] | 0.0068 | 7.73 |
